From patent US12485169B2, “Compounds” (GREY WOLF THERAPEUTICS LIMITED, priority 2018, dated 2025)

Target: T1, Purified ERAP1 (37-941)-10His (ERAP1) (Homo sapiens, UniProt Q9NZ08)
T1 construct: Purified ERAP1 (37-941)-10His (ERAP1)
Test: ERAP1 mediated hydrolysis of an amide substrate (10-mer inhibition assay), biochemical system
Conditions: 10-mer substrate, 23° C., 1 h, excitation 279 nm / emission 355 nm; read-out: IC50 vs Decapeptide WRVYEKC(Dnp)ALK-acid (where Dnp is Dinitrophenyl maleimide) (10-mer)

T1 sequence (Q9NZ08 37-941): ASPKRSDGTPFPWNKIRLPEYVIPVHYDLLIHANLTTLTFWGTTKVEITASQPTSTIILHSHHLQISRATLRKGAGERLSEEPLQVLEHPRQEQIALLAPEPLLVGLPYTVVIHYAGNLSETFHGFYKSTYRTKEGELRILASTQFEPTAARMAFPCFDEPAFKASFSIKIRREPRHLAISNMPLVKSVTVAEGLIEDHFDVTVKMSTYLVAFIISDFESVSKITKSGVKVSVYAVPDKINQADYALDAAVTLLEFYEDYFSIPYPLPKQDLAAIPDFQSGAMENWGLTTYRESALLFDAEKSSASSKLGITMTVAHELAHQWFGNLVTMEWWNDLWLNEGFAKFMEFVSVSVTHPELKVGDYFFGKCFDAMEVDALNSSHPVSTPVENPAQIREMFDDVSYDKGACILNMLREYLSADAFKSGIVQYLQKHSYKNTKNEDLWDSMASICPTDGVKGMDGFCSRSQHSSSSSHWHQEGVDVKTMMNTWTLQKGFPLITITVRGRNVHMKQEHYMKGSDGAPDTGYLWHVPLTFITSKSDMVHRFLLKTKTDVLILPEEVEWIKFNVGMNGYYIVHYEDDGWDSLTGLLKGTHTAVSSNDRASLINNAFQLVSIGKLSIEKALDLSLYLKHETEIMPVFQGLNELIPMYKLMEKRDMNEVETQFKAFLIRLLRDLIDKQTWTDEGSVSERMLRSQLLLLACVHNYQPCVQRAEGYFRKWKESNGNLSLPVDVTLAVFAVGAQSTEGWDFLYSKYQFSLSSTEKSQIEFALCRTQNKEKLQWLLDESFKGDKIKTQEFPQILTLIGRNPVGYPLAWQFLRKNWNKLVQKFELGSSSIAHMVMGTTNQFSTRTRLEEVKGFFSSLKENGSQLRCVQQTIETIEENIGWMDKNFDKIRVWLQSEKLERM

SMILES	IC50 [nM]
CCc1ccc(C(=O)O)cc1S(=O)(=O)Nc1cc(C(F)(F)F)ccc1N1CCCC[C@@H]1C [Example 240, (S)-4-ethyl-3-(N-(2-(2-methylpiperidin-1-yl)-5-(trifluoromethyl)phenyl)sulfamoyl)benzoic acid]	< 500
CCc1ccc(C(=O)O)cc1S(=O)(=O)Nc1cc(-c2nnc(C)o2)ccc1N1CCCCC1 [Example 292, 4-ethyl-3-(N-(5-(5-methyl-1,3,4-oxadiazol-2-yl)-2-(piperidin-1-yl)phenyl)sulfamoyl)benzoic acid]	< 500
O=C(O)c1ccc(Cl)c(S(=O)(=O)Nc2cc(C(F)(F)F)ccc2N2CCCCCC2)c1 [Example 86, 3-(N-(2-(azepan-1-yl)-5-(trifluoromethyl)phenyl)sulfamoyl)-4-chlorobenzoic acid]	< 500
COc1ccc(C(=O)O)cc1S(=O)(=O)Nc1cc(S(C)(=O)=O)ccc1N1CCC[C@@H](F)C1 [Example 269, I-3-(N-(2-(3-fluoropiperidin-1-yl)-5-(methylsulfonyl)phenyl)sulfamoyl)-4-methoxybenzoic acid]	< 500
CCc1ccc(C(=O)O)cc1S(=O)(=O)Nc1cc(-c2ccnn2C)ccc1N1CCCCC1 [Example 281]	< 500
CCc1ccc(C(=O)O)cc1S(=O)(=O)Nc1cc(C#N)ccc1N1CCCCC1 [Example 215, 3-(N-(5-cyano-2-(piperidin-1-yl)phenyl)sulfamoyl)-4-ethylbenzoic acid]	< 500
CCc1ccc(C(=O)O)cc1S(=O)(=O)Nc1cc(-c2nn[nH]n2)ccc1N1CCCCC1 [Example 261, 4-ethyl-3-(N-(2-(piperidin-1-yl)-5-(tetrazol-5-yl)phenyl)sulfamoyl)benzoic acid]	< 500
C#Cc1ccc(C(=O)O)cc1S(=O)(=O)Nc1cc(C#N)ccc1N1CCCCC1 [Example 338, 3-(N-(5-cyano-2-(piperidin-1-yl)phenyl)sulfamoyl)-4-ethynylbenzoic acid]	> 5000
CCc1ccc(C(=O)O)cc1S(=O)(=O)Nc1cc(-c2nnco2)ccc1N1CCCCC1 [Example 299]	< 500

The remaining lines, values ahead:

IC50 [nM]	SMILES
< 500	COc1ccc(C(=O)O)cc1S(=O)(=O)Nc1cc(C(F)(F)F)ccc1N1CCC(F)(F)CC1 [Example 12, 3-(N-(2-(4,4-difluoropiperidin-1-yl)-5-(trifluoromethyl)phenyl)sulfamoyl)-4-methoxybenzoic acid]
< 500	Cc1ccc(C(=O)O)cc1S(=O)(=O)Nc1cc(C(F)(F)F)ccc1N1CCCCC1 [Example 67, 4-methyl-3-(N-(2-(piperidin-1-yl)-5-(trifluoromethyl)phenyl)sulfamoyl)benzoic acid]
< 500	CS(=O)(=O)c1ccc(N2CCCC(F)(F)C2)c(NS(=O)(=O)c2cc(C(=O)O)ccc2C2CC2)c1 [Example 319, 4-cyclopropyl-3-(N-(2-(3,3-difluoropiperidin-1-yl)-5-(methylsulfonyl)phenyl)sulfamoyl)benzoic acid]
< 500	CCc1ccc(C(=O)O)cc1S(=O)(=O)Nc1cc(-c2cn[nH]c2)ccc1N1CCCCC1 [Example 301, 4-ethyl-3-(N-(2-(piperidin-1-yl)-5-(pyrazol-4-yl)phenyl)sulfamoyl)benzoic acid]
> 5000	CCc1ccc(C(=O)O)cc1S(=O)(=O)Nc1cc(C(F)(F)F)ccc1N1CCCCCC1 [Example 61, 3-(N-(2-(azepan-1-yl)-5-(trifluoromethyl)phenyl)sulfamoyl)-4-ethylbenzoic acid]
< 5000	COc1ccc(C(=O)O)cc1S(=O)(=O)Nc1cc(C(F)(F)F)ccc1N1CC(C)(O)C1 [Example 18, 3-(N-(2-(3-hydroxy-3-methylazetidin-1-yl)-5-(trifluoromethyl)phenyl)sulfamoyl)-4-methoxybenzoic acid]
< 5000	COc1ccc(C(=O)O)cc1S(=O)(=O)Nc1cc(C(F)(F)F)ccc1N1CC[C@@H](O)[C@@H](F)C1 [Example 27, 3-(N-(2-((3S,4R)-3-fluoro-4-hydroxypiperidin-1-yl)-5-(trifluoromethyl)phenyl)sulfamoyl)-4-methoxybenzoic acid]
< 5000	COc1ccc(C(=O)O)cc1S(=O)(=O)Nc1cc(C(F)(F)F)ccc1N1CC2CCC(C1)O2 [Example 7, 3-(N-(2-(8-oxa-3-azabicyclo[3.2.1]octan-3-yl)-5-(trifluoromethyl)phenyl)sulfamoyl)-4-methoxybenzoic acid]
< 500	COc1ccc(C(=O)O)cc1S(=O)(=O)Nc1cc(C(F)(F)F)ccc1N1C[C@H](C)C[C@H](C)C1 [Example 6, 3-(N-(2-(cis-3,5-dimethylpiperidin-1-yl)-5-(trifluoromethyl)phenyl)sulfamoyl)-4-methoxybenzoic acid]
